In patent US8759051B2, “Control of contaminant microorganisms in fermentation processes with peroxygen-releasing compounds” (E I du Pont de Nemours and Company, priority 2010, dated 2014):
Values joined by “and” are separate entries in the source; they are usually repeats but may differ in a detail not shown here. Identical values can stand only once. Like-named read-outs stand apart in the source and are kept apart here. Each block holds one compound with its values, some of them ahead of it.

How the values were obtained:
[1] = tested on: lactic acid bacteria (LAB); assay: Inactivation of LAB in molasses at pH 4.2 and 5.4 (Examples 2 and 3); format: cell-based
Protocol: Molasses (B&G Foods, Inc., Roseland, N.J.) was diluted 1 to 3.1 with water and sterilized as in Example 1. The prepared molasses was then divided into two lots and pH-adjusted using sulfuric acid to approximately pH 4.2 and 5.4, respectively. Cultures of LAB were prepared as in Example 1 and inoculated into the molasses to give approximately 1×10^6 CFU/ml. Sodium percarbonate (Alfa Aesar, Ward Hill, Mass.) was added to give 250, 500, and 750 ppm. […] Levels of LAB were enumerated by dilution and plating onto the surface of MRS agar followed by incubation at 32° C. LAB were enumerated at approximately 2 and 24 hours after the addition of sodium percarbonate.
Molasses was prepared as above and adjusted to pH 4.2 and 5.4 using sulfuric acid. Cultures of lactic acid bacteria were prepared as indicated in Example 1 and inoculated into the molasses to give approximately 10E6 CFU/ml. Levels of bacteria were confirmed by plating serial dilutions of the inoculated molasses onto the surface of MRS agar plates as in Example 1. Calcium peroxide was added at the levels indicated. Bacterial levels were enumerated at 2 and 24 hours following addition as described above.

[2] = Stability of peroxygen-releasing compounds during storage at 40° C., iodometric titration of hydrogen peroxide (Example 4); format: physicochemical
Protocol: A dry oven was used to store samples of the peroxygen-releasing compounds at 40° C. The oven was allowed to equilibrate overnight. Two-gram duplicate samples of each of the following peroxygen-releasing compounds were dispensed into aluminum weighing dishes: sodium percarbonate (Alfa Aesar, Ward Hill, Mass.), sodium percarbonate FB 400 (Solvay Chemicals, Inc., Houston, Tex.), sodium percarbonate FB […] (Solvay Chemicals, Inc.), calcium peroxide (Sigma-Aldrich Co., St. […] After six days, samples were analyzed for levels of hydrogen peroxide using standard iodometric titration.

[3] = tested on: lactic acid bacteria (LAB); assay: Inactivation of LAB in dilute molasses at pH 5.0 in the presence of yeast Ethanol Red (Example 5); format: cell-based
Protocol: Cultures of lactic acid bacteria (LAB) were prepared as in Example 1 above. Molasses was diluted 1:3.1 with water as in previous examples. The fermenting yeast Ethanol Red was cultured as in example 1. Populations of lactic acid bacteria and yeasts were determined by dilution plating on MRS agar and YPD agar, respectively. Overnight cultures of LAB were mixed to prepare a bacterial cocktail and inoculated into molasses (diluted 1:3.1 with water) adjusted to pH 5.0 to give approximately 6.11 Log CFU/ml. Cultures of yeasts were added to each tube at a concentration of approximately 6.80 Log CFU/ml. […] The amount of UHP added was 1450 ppm. The amount of percarbonate added was 1812 ppm. Tubes were then incubated at 32° C. with agitation. […] Amphotericin inhibits the growth of yeast, facilitating enumeration of bacteria only.

[4] = before storage, duplicate samples
[5] = storage at 40° C. in dry oven, day 6, duplicate samples
[6] = storage at 40° C. in dry oven, day 14, duplicate samples

% Remaining H2O2 Day 0 [2]: 100%
% Remaining H2O2 Day 6 [2]: 97%
% Remaining H2O2 Day 14 [2]: 97%
% H2O2 Day 0 [2, 4]: 34.71% and 34.73%
% H2O2 Day 6 [2, 5]: 33.66% and 33.60%
% H2O2 Day 14 [2, 6]: 33.62% and 33.57%
relative hydrogen peroxide retained during storage ([2]; storage at 40° C., day not given): 97%
SMILES: [Ca+2].[O-][O-] [Calcium peroxide, calcium peroxide]
CFU/ml LAB at hour indicated ([1]; molasses at pH 4.2, 197 ppm (69 ppm as H2O2), hour 2): 2.33 × 10^6 CFU/ml
CFU/ml LAB at hour indicated ([1]; molasses at pH 4.2, 197 ppm (69 ppm as H2O2), hour 24): 4.25 × 10^6 CFU/ml
CFU/ml LAB at hour indicated ([1]; molasses at pH 4.2, 393 ppm (138 ppm as H2O2), hour 2): 1.22 × 10^6 CFU/ml
CFU/ml LAB at hour indicated ([1]; molasses at pH 4.2, 393 ppm (138 ppm as H2O2), hour 24): 1.00 × 10^1 CFU/ml
CFU/ml LAB at hour indicated ([1]; molasses at pH 4.2, 590 ppm (207 ppm as H2O2), hour 2): 4.70 × 10^5 CFU/ml
CFU/ml LAB at hour indicated ([1]; molasses at pH 4.2, 590 ppm (207 ppm as H2O2), hour 24): <10 CFU/ml
CFU/ml LAB at hour indicated ([1]; molasses at pH 5.4, 197 ppm (69 ppm as H2O2), hour 2): 8.90 × 10^5 CFU/ml
CFU/ml LAB at hour indicated ([1]; molasses at pH 5.4, 197 ppm (69 ppm as H2O2), hour 24): 4.00 × 10^4 CFU/ml
CFU/ml LAB at hour indicated ([1]; molasses at pH 5.4, 393 ppm (138 ppm as H2O2), hour 2): 5.00 × 10^2 CFU/ml
CFU/ml LAB at hour indicated ([1]; molasses at pH 5.4, 393 ppm (138 ppm as H2O2), hour 24): below the detection limit
CFU/ml LAB at hour indicated ([1]; molasses at pH 5.4, 393 ppm (138 ppm as H2O2), hour 24, listed as Calcium percarbonate): <10 CFU/ml
CFU/ml LAB at hour indicated ([1]; molasses at pH 5.4, 590 ppm (207 ppm as H2O2), hour 2): 8.0×10^4 CFU/ml
CFU/ml LAB at hour indicated ([1]; molasses at pH 5.4, 590 ppm (207 ppm as H2O2), hour 2, listed as Calcium percarbonate): 8.00 × 10^4 CFU/ml
CFU/ml LAB at hour indicated ([1]; molasses at pH 5.4, 590 ppm (207 ppm as H2O2), hour 24): <10 CFU/ml
reductions in LAB ([1]; molasses pH 4.2, 197 ppm calcium peroxide, 2 hour): only slight reductions
reduction of LAB ([1]; molasses pH 4.2, 197 ppm calcium peroxide, 24 hours): approximately 1 log
reductions in LAB ([1]; molasses pH 4.2, 393 ppm calcium peroxide, 2 hour): only slight reductions
reduction of the population of LAB ([1]; molasses pH 4.2, 393 ppm calcium peroxide, 24 hours): more than 6 log units
reduction of the population of LAB ([1]; molasses pH 4.2, 590 ppm calcium peroxide, 2 hour): approximately 1 log
reduction of the population of LAB ([1]; molasses pH 4.2, 590 ppm calcium peroxide, 24 hours): more than 6 log units

% Remaining H2O2 Day 0 [2]: 100%
% Remaining H2O2 Day 6 [2]: 100%
% H2O2 Day 0 [2, 4]: 10.66% and 10.72%
% H2O2 Day 6 [2, 5]: 10.66% and 10.68%
% H2O2 Day 14 [2, 6]: 10.64% and 10.65%
SMILES: [Mg+2].[O-][O-] [Magnesium peroxide, magnesium peroxide]

% Remaining H2O2 Day 0 [2]: 100%
% Remaining H2O2 Day 6 [2]: 96%
% Remaining H2O2 Day 14 [2]: 96%
% H2O2 Day 0 [2, 4]: 23.81% and 23.66%
% H2O2 Day 6 [2, 5]: 22.80% and 22.74%
% H2O2 Day 14 [2, 6]: 22.80% and 22.67%
SMILES: O=C([O-])[O-].O=C([O-])[O-].OO.OO.OO.[Na+].[Na+].[Na+].[Na+] [Sodium percarbonate (FB 400), sodium percarbonate]

% Remaining H2O2 Day 0 [2]: 100%
% Remaining H2O2 Day 14 [2]: 96%
% H2O2 Day 0 [2, 4]: 26.34% and 26.25%
% H2O2 Day 6 [2, 5]: 25.37% and 25.45%
% H2O2 Day 14 [2, 6]: 25.35% and 25.27%
SMILES: O=C([O-])[O-].O=C([O-])[O-].OO.OO.OO.[Na+].[Na+].[Na+].[Na+] [Sodium percarbonate (FB 400C), sodium percarbonate]

SMILES: NC(N)=O.OO [Urea hydrogen peroxide, urea hydrogen peroxide, reference compound]
% H2O2 Day 0 [2, 4]: 34.53% and 34.56%
% Remaining H2O2 Day 0 [2, 4]: 100%
% H2O2 Day 0 ([2]; before storage, duplicate samples, listed as urea hydrogen peroxide): approximately 35%
% H2O2 Day 6 [2, 5]: 0.24% and 0.25%
% Remaining H2O2 Day 6 [2, 5]: <1%
% H2O2 Day 6 ([2]; storage at 40° C. in dry oven, day 6, duplicate samples, listed as urea hydrogen peroxide): below 1%
% H2O2 Day 14 [2, 6]: 0.08%
% Remaining H2O2 Day 14 [2, 6]: 0%
stability during storage (in words) ([2]; storage at 40° C., 6 and 14 days): not stable during storage
reduction of the population of LAB ([3]; 500 ppm as H2O2, 2 hours of incubation at 32° C., in presence of yeast): 3 log units
Log CFU/mL of LAB at hour indicated ([3]; 500 ppm as H2O2, hour 2, molasses pH 5.0, yeast approx. 6.80 Log CFU/ml, 32° C.): 3.36 Log CFU/mL
